# Source: patent US20150125509A1, “TREATMENT OF FISH POPULATIONS WITH LUFENURON” (priority 2012, published 2015)
# Assays:
# sea louse = settings: injectable, WO99/063824; cited from earlier work
# L. salmonis = experiment: Example 2: in-feed treatment in fresh water hatchery, natural sea louse infestation after sea transfer, L. salmonis counts; assay type: in vivo, Lepeophtheirus salmonis on Atlantic salmon (Salmo salar); settings: for L. salmonis: all stages, Treated, counts / L. salmonis: pre- & adults, Efficacy / L. salmonis: pre- & adults, Treated, counts: fresh water
# Protocol: Three groups of 400 Atlantic salmon (Salmo salar) of average weight 80 g were treated with medicated pellets containing lufenuron to deliver doses equivalent to 1, 5 and 10 mg/kg/day over 7 consecutive days. A fourth group containing 400 salmon of average weight 80 g was added to the study as a non-treated control group. The medicated pellets were prepared by coating commercially available fish feed pellets with a lufenuron-containing pre-mix to reach a content of 0.005, 0.025 and 0.05% (w/w) lufenuron in the fish feed. The groups were randomized and the identity of the feeds blinded to the site staff. The treatment was undertaken in a fresh water hatchery and the fish transferred to sea water within 7 days of completion of treatment.
# On transfer to sea each group was split into two cages and all cage groups were maintained in separate randomized cages.
# After treatment, the fish were exposed to natural sea louse infestation. During the study the temperature varied between 1.9 and 8.1° C. Fish weights were assessed at allocation to cages, again approximately 2 weeks after the sea transfer and then at 4 weekly intervals. Sea louse numbers were assessed at approximately 2 weeks after the sea transfer and then at 4 weekly intervals. The numbers of chalimus, pre-adults and adult male, mobile and mature female L. salmonis were recorded for each fish. No distinction was made between chalimus stages I-IV or between pre-adult and adult male stages. Total numbers of Caligus elongatus were also recorded but no significant infestation was established to enable an assessment of efficacy.
# Efficacy was calculated using the formula:
# % Efficacy=100−(100×mean of treatment group/mean of control).
# [1] = 1 mg/kg/day 7 days in-feed, 15 days post sea transfer
# [2] = 1 mg/kg/day 7 days in-feed, 42 days post sea transfer
# [3] = 1 mg/kg/day 7 days in-feed, 76 days post sea transfer
# [4] = 1 mg/kg/day 7 days in-feed, 98 days post sea transfer
# [5] = 1 mg/kg/day 7 days in-feed, 125 days post sea transfer
# [6] = 1 mg/kg/day 7 days in-feed, 154 days post sea transfer
# [7] = 5 mg/kg/day 7 days in-feed, 15 days post sea transfer
# [8] = 5 mg/kg/day 7 days in-feed, 76 days post sea transfer
# [9] = 5 mg/kg/day 7 days in-feed, 98 days post sea transfer
# [10] = 5 mg/kg/day 7 days in-feed, 125 days post sea transfer
# [11] = 5 mg/kg/day 7 days in-feed, 154 days post sea transfer
# [12] = 10 mg/kg/day 7 days in-feed, 15 days post sea transfer
# [13] = 10 mg/kg/day 7 days in-feed, 76 days post sea transfer
# [14] = 10 mg/kg/day 7 days in-feed, 98 days post sea transfer
# [15] = 10 mg/kg/day 7 days in-feed, 125 days post sea transfer
# [16] = 10 mg/kg/day 7 days in-feed, 154 days post sea transfer
smiles,measurement,setting,value
"O=C(NC(=O)c1c(F)cccc1F)Nc1cc(Cl)c(OC(F)(F)C(F)C(F)(F)F)cc1Cl (centres unmarked) [lufenuron, N-{[2,5-Dichlor-4-(1,1,2,3,3,3-hexafluorpropoxy)phenyl]carbamoyl}-2,6-difluorbenzamid]",protection against sea louse infestation after injection,sea louse,128 days
same,"L. salmonis: all stages, Treated, counts",L. salmonis; [1],0
same,"L. salmonis: pre- & adults, Efficacy",L. salmonis; [1],100%
same,"L. salmonis: pre- & adults, Treated, counts",L. salmonis; [1],0
same,"L. salmonis: all stages, Treated, counts",L. salmonis; [2],0
same,"L. salmonis: pre- & adults, Efficacy",L. salmonis; [2],100%
same,"L. salmonis: pre- & adults, Treated, counts",L. salmonis; [2],0
same,"L. salmonis: all stages, Treated, counts",L. salmonis; [3],0.1
same,"L. salmonis: pre- & adults, Efficacy",L. salmonis; [3],96.2%
same,"L. salmonis: pre- & adults, Treated, counts",L. salmonis; [3],0.1
same,"L. salmonis: all stages, Treated, counts",L. salmonis; [4],0.8
same,"L. salmonis: pre- & adults, Efficacy",L. salmonis; [4],83.9%
same,"L. salmonis: pre- & adults, Treated, counts",L. salmonis; [4],0.45
same,"L. salmonis: all stages, Treated, counts",L. salmonis; [5],0.4
same,"L. salmonis: pre- & adults, Efficacy",L. salmonis; [5],92.9%
same,"L. salmonis: pre- & adults, Treated, counts",L. salmonis; [5],0.3
same,"L. salmonis: all stages, Treated, counts",L. salmonis; [6],0.3
same,"L. salmonis: pre- & adults, Efficacy",L. salmonis; [6],92.8%
same,"L. salmonis: pre- & adults, Treated, counts",L. salmonis; [6],0.3
same,"L. salmonis: all stages, Treated, counts",L. salmonis; [7],0.1
same,"L. salmonis: pre- & adults, Efficacy",L. salmonis; [7],100%
same,"L. salmonis: pre- & adults, Treated, counts",L. salmonis; [7],0
same,"L. salmonis: all stages, Treated, counts",L. salmonis; [8],0
same,"L. salmonis: pre- & adults, Efficacy",L. salmonis; [8],100%
same,"L. salmonis: pre- & adults, Treated, counts",L. salmonis; [8],0
same,"L. salmonis: all stages, Treated, counts",L. salmonis; [9],0.1
same,"L. salmonis: pre- & adults, Efficacy",L. salmonis; [9],96.4%
same,"L. salmonis: pre- & adults, Treated, counts",L. salmonis; [9],0.1
same,"L. salmonis: all stages, Treated, counts",L. salmonis; [10],0
same,"L. salmonis: pre- & adults, Efficacy",L. salmonis; [10],100%
same,"L. salmonis: pre- & adults, Treated, counts",L. salmonis; [10],0
same,"L. salmonis: all stages, Treated, counts",L. salmonis; [11],0
same,"L. salmonis: pre- & adults, Efficacy",L. salmonis; [11],100%
same,"L. salmonis: pre- & adults, Treated, counts",L. salmonis; [11],0
same,"L. salmonis: all stages, Treated, counts",L. salmonis; [12],0.5
same,"L. salmonis: pre- & adults, Efficacy",L. salmonis; [12],100%
same,"L. salmonis: pre- & adults, Treated, counts",L. salmonis; [12],0
same,"L. salmonis: all stages, Treated, counts",L. salmonis; [13],0
same,"L. salmonis: pre- & adults, Efficacy",L. salmonis; [13],100%
same,"L. salmonis: pre- & adults, Treated, counts",L. salmonis; [13],0
same,"L. salmonis: all stages, Treated, counts",L. salmonis; [14],0
same,"L. salmonis: pre- & adults, Efficacy",L. salmonis; [14],100%
same,"L. salmonis: pre- & adults, Treated, counts",L. salmonis; [14],0
same,"L. salmonis: all stages, Treated, counts",L. salmonis; [15],0
same,"L. salmonis: pre- & adults, Efficacy",L. salmonis; [15],100%
same,"L. salmonis: pre- & adults, Treated, counts",L. salmonis; [15],0
same,"L. salmonis: all stages, Treated, counts",L. salmonis; [16],0
same,"L. salmonis: pre- & adults, Efficacy",L. salmonis; [16],100%
same,"L. salmonis: pre- & adults, Treated, counts",L. salmonis; [16],0
same,protected the fish against sea louse infestation until at least (time post-treatment),"L. salmonis; Example 2, 1 mg/kg treatment",five
same,efficacy over the protection period,"L. salmonis; Example 2, 1 mg/kg treatment, until at least five month post-treatment",approximately 90%
same,protected the fish against sea louse infestation until (time post-treatment),"L. salmonis; Example 2, 5 mg/kg treatment, study continues",5 months
same,protected the fish against sea louse infestation up to (time post-treatment),"L. salmonis; Example 2, 10 mg/kg treatment, study continues",5 months
